According to ChEMBL document CHEMBL1159147, “4-(2-PYRTOYL)-5-phenylthiazoles as novel non-bicyclic reversible inhibitors of the gastric H+/K+-atpase” (Bioorg Med Chem Lett, 1995):

Assays:
[1] = target: T1, Potassium-transporting ATPase alpha chain 1 (Sus scrofa, UniProt P19156); assay: Ability to inhibit H+/K+ stimulated ATPase activity in lympholised gastric vesicles; assay type: tissue-based, Stomach
[2] = Acid dissociation constant was reported; assay type: ADME
[3] = system: Rattus norvegicus; assay: Compound was tested in vivo for its ability to inhibit pentagastrin-stimulated gastric acid secretion in the anesthetized lumen perfused rat at 10 umol/kg iv; assay type: functional; settings: Stomach
[4] = target: T1, Potassium-transporting ATPase alpha chain 1; assay: Compound was evaluated for its ability to inhibit K+-stimulated ATPase activity
[5] = Ability to inhibit Na(+)/K(+)-stimulated ATPase activity in hog kidney; parameters: species or system Sus scrofa

T1 sequence (P19156 whole entry): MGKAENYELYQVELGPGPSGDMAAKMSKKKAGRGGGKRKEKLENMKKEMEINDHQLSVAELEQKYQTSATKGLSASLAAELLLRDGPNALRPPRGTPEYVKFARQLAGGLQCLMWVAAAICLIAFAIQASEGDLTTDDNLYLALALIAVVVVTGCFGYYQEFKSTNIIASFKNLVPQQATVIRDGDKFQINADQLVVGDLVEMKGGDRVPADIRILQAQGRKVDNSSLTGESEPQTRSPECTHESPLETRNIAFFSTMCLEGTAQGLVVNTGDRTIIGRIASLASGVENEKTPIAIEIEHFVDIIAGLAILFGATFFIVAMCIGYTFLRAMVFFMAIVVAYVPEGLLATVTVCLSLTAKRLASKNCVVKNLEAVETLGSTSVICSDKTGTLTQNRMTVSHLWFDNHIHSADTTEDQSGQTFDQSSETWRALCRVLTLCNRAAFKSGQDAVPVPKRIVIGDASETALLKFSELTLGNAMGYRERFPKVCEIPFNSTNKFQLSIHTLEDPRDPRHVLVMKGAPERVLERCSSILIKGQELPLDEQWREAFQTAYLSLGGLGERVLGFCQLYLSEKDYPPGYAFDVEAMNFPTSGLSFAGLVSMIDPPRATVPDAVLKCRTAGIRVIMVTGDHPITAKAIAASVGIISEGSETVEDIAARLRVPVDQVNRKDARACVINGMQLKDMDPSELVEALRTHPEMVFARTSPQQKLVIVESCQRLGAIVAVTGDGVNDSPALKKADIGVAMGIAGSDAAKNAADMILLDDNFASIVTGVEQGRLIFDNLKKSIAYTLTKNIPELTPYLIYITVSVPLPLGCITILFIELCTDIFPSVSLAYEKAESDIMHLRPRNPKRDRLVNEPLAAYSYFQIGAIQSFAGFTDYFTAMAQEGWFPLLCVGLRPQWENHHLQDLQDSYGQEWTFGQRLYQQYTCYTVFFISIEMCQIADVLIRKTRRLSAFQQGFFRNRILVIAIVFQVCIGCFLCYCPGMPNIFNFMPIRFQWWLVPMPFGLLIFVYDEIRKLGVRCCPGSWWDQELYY

IC50 [1] | pKa [2] | Ki [4] | IC50 [5] | Compound | inhibition in vivo at 10 µmol/kg [3]
4.9 µM | – | – | – | Cc1ccccc1-c1nc(-c2ccccn2)c(-c2ccccc2C)s1 | –
– | 6.7 | – | – | CCOC(=O)c1cnc2c(OC)cccc2c1Nc1ccccc1C | –
0.98 µM | – | – | – | Cc1ccccc1N1CCc2cnc3c(C)cccc3c21 | 47%
12.5 µM | – | – | – | CCCc1nc(-c2cccc(NC)n2)c(-c2ccccc2C)s1 | 42%
42.3 µM | – | – | – | CCCc1nc(-c2ccccn2)c(-c2ccccc2)s1 | 21%
9.6 µM | – | – | – | Cc1ccccc1-c1sc(Cc2ccccc2)nc1-c1ccccn1 | 29%
2.9 µM | – | – | – | CCCc1nc(-c2cccc(N)n2)c(-c2ccccc2C)s1 | 48%
2.2 µM | 8 | 0.838 µM | 44 µM | CCCc1nc(-c2cc(N)ccn2)c(-c2ccccc2C)s1 | 36%
8.2 µM | 4.2 | – | – | CCCc1nc(-c2ccccn2)c(-c2ccccc2C)s1 | 26%
